This data set deals with maxillary dental arch. Put plainly: nasal deliverable anesthetizing composition applied to a patient's nasal cavity. The following applies: for absorption of the anesthetic with vasoconstrictor: compared to an anesthetic composition applied to nasal tissue not treated with a vasoconstrictor, HCl. The format is in vivo. From the text:
As set forth above, the inventive nasal deliverable anesthetic compositions are delivered to the patient through the nasal cavity. This is done by applying the anesthetic composition to the lateral wall or membrane of the nasal cavity, where it can be absorbed into the nasal tissue, including nerves located within the nasal tissue. In the case where a delivery device having an extension tube is used, good results have been obtained by inserting approximately 15 mm of the tube into the patient's nasal cavity through the nostril. A nasal speculum may advantageously be used to assist in dilating the patient's nostril preparatory to inserting the extension tube so as to facilitate placement of the tube in a desired location within the patient's nasal cavity.
As discussed above with respect to FIG. 1, the nasal cavity includes a number of nerves that are responsible for transmitting pain and pressure impulses from the maxillary arch and palate to the brain. Most of these nerves collect at and below the maxillary nerve. Due to the location of the various nerves that collect at or below the maxillary nerve it may be possible to provide various degrees of anesthesia. Control of dosage volume, through control of the number of substance dispensing, can be utilized to determine the anatomical structures to be anesthetized. Minimal dosage volumes tend to yield anesthesia to at least a portion of the maxillary dentition, while greater anesthetic dosages yield anesthesia to the entire maxillary arch.
The tetracaine portion included an associated chlorobutanol preservative. The aqueous solution included sodium chloride in water.

The source of these data is patent US6413499B1, “Methods and kits for maxillary dental anesthesia by means of a nasal deliverable anesthetic” (priority 2000, dated 2002).

Molecules are shown by their SMILES. Structures can show the parent of a compound that is named as a salt.

On to `Cc1cc(C(C)(C)C)c(O)c(C)c1CC1=NCCN1` [Oxymetazoline HCl], for which the “absorption of the anesthetic with vasoconstrictor” value is “enhanced the absorption of the tetracaine”. The “anesthetic effect of the anesthetic with vasoconstrictor” value (compared to a lidocaine composition applied to nasal tissue not treated with a vasoconstrictor) is recorded as “enhanced the anesthetic effect of the lidocaine”. For the same compound, the “absorption of the anesthetic with vasoconstrictor” value (listed as oxymetazoline HCl) is given as “enhanced the absorption of the benzocaine”.
